We go through three molecules from PMC4685510, “A Cell Biologist’s Field Guide to Aurora Kinase Inhibitors” (Frontiers in Oncology, 2015).

What all share (assay): biochemical
Holding throughout (assay type): biochemical

Experiment [1] addresses 363 human kinases (including Aurora A/B/C) (Homo sapiens, UniProt Q9NQU5). Conditions: PAK6; for remaining activity at 0.5 µM / remaining activity at 0.1 µM: read-out: % Enzyme Activity (relative to DMSO controls); for remaining activity at 0.1 µM: 100 nM.
Excerpt: (§1) However, the Aurora A/B selectivity ratios derived from our in vitro and in vivo data can be compared to prioritize inhibitors.
Experiment [2] deals with T1, 363 human kinases (including Aurora A/B/C) (Homo sapiens, UniProt P21709).
T1 sequence (P21709 26-976): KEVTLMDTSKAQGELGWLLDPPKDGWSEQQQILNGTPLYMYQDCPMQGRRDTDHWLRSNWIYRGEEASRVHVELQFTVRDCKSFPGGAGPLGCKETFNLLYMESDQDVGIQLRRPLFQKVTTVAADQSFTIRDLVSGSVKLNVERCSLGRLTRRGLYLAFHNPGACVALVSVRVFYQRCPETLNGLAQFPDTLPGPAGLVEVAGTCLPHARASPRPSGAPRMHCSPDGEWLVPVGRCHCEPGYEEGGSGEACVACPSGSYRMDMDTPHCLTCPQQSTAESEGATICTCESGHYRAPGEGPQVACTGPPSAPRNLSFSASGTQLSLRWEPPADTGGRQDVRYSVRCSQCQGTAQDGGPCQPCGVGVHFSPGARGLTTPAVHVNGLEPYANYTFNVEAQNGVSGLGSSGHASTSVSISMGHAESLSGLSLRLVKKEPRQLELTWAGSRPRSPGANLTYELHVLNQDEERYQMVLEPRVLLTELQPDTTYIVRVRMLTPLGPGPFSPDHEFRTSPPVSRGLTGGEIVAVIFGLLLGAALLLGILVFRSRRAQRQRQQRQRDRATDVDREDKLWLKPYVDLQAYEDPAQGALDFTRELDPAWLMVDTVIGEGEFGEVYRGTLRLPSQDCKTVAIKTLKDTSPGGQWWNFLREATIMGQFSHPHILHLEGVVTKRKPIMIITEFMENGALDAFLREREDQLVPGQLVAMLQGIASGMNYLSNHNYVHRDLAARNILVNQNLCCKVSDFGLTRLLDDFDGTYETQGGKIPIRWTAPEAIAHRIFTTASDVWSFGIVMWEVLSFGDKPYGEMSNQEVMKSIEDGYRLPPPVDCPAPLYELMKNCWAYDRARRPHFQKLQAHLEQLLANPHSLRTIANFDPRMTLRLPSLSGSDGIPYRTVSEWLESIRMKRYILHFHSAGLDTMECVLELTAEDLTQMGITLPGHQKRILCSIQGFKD
Conditions: EPHA1, [ATP] 20 µM; for remaining activity at 0.5 µM / remaining activity at 0.1 µM: read-out: % Enzyme Activity (relative to DMSO controls); for remaining activity at 0.1 µM: 100 nM.
Excerpt: as §1

The target of experiment [3] is T2, 363 human kinases (including Aurora A/B/C) (Homo sapiens, UniProt P25098).
T2 sequence (P25098 1-689): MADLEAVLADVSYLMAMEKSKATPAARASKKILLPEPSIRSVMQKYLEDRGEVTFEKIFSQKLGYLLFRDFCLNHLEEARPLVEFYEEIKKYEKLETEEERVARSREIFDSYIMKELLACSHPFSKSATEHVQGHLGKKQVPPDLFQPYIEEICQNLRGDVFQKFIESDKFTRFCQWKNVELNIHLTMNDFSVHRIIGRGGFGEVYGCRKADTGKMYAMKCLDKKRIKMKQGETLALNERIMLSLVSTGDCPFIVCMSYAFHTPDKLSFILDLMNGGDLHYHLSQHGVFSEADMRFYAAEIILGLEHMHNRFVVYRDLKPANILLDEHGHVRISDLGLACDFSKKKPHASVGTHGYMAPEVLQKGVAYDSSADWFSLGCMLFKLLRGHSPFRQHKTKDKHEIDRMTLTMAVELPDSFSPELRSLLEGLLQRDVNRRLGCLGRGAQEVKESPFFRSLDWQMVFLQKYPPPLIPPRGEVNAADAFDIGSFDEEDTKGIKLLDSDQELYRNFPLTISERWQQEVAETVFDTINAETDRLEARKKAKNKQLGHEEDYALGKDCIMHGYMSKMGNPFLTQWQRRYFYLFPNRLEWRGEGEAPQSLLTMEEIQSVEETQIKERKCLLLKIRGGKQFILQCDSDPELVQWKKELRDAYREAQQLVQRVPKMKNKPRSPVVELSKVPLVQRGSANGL
Conditions: GRK2; for remaining activity at 0.5 µM / remaining activity at 0.1 µM: read-out: % Enzyme Activity (relative to DMSO controls); for remaining activity at 0.1 µM: 100 nM.
Excerpt: as §1

Experiment [4] has as its target 363 human kinases (including Aurora A/B/C) (Homo sapiens, UniProt O75116). The note with it: ROCK2; for remaining activity at 0.5 µM / remaining activity at 0.1 µM: read-out: % Enzyme Activity (relative to DMSO controls); for remaining activity at 0.1 µM: 100 nM.
Excerpt: as §1
Experiment [5] concerns the target 363 human kinases (including Aurora A/B/C) (Homo sapiens, UniProt Q9UM73). Conditions: ALK, [ATP] 50 µM; for remaining activity at 0.5 µM / remaining activity at 0.1 µM: read-out: % Enzyme Activity (relative to DMSO controls); for remaining activity at 0.1 µM: 100 nM.
Excerpt: as §1
In experiment [6] the target is T3, 363 human kinases (including Aurora A/B/C) (Homo sapiens, UniProt Q8TD19).
T3 sequence (Q8TD19 1-979): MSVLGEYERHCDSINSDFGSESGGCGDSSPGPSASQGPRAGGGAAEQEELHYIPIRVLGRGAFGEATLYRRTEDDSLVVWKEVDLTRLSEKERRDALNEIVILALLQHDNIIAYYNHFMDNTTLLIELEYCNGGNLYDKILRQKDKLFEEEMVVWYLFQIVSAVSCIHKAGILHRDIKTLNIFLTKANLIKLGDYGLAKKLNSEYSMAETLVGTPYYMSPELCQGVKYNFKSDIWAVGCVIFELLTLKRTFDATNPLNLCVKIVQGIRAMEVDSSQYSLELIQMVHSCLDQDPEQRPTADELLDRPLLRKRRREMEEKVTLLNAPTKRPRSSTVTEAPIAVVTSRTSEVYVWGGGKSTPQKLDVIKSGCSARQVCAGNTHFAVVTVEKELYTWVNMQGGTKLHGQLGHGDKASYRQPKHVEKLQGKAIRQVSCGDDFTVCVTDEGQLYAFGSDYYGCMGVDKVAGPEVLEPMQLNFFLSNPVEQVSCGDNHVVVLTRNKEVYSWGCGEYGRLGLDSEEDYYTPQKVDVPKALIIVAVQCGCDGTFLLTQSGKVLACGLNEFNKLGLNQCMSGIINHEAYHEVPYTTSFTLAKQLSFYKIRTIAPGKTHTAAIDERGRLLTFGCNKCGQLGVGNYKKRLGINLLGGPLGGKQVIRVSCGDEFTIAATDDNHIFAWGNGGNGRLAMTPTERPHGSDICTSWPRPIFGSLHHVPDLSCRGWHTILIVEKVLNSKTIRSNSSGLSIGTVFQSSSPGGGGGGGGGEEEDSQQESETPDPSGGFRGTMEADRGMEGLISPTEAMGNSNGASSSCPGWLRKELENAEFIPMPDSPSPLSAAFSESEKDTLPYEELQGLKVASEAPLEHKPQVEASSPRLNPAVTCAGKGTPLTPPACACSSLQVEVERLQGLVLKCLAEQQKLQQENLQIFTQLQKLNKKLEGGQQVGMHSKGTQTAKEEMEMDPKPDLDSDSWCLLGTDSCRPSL
Conditions: NEK9; for remaining activity at 0.5 µM / remaining activity at 0.1 µM: read-out: % Enzyme Activity (relative to DMSO controls); for remaining activity at 0.1 µM: 100 nM.
Excerpt: as §1

363 human kinases (including Aurora A/B/C) (Homo sapiens, UniProt Q9UM73), sequence (Q9UM73 19-1620): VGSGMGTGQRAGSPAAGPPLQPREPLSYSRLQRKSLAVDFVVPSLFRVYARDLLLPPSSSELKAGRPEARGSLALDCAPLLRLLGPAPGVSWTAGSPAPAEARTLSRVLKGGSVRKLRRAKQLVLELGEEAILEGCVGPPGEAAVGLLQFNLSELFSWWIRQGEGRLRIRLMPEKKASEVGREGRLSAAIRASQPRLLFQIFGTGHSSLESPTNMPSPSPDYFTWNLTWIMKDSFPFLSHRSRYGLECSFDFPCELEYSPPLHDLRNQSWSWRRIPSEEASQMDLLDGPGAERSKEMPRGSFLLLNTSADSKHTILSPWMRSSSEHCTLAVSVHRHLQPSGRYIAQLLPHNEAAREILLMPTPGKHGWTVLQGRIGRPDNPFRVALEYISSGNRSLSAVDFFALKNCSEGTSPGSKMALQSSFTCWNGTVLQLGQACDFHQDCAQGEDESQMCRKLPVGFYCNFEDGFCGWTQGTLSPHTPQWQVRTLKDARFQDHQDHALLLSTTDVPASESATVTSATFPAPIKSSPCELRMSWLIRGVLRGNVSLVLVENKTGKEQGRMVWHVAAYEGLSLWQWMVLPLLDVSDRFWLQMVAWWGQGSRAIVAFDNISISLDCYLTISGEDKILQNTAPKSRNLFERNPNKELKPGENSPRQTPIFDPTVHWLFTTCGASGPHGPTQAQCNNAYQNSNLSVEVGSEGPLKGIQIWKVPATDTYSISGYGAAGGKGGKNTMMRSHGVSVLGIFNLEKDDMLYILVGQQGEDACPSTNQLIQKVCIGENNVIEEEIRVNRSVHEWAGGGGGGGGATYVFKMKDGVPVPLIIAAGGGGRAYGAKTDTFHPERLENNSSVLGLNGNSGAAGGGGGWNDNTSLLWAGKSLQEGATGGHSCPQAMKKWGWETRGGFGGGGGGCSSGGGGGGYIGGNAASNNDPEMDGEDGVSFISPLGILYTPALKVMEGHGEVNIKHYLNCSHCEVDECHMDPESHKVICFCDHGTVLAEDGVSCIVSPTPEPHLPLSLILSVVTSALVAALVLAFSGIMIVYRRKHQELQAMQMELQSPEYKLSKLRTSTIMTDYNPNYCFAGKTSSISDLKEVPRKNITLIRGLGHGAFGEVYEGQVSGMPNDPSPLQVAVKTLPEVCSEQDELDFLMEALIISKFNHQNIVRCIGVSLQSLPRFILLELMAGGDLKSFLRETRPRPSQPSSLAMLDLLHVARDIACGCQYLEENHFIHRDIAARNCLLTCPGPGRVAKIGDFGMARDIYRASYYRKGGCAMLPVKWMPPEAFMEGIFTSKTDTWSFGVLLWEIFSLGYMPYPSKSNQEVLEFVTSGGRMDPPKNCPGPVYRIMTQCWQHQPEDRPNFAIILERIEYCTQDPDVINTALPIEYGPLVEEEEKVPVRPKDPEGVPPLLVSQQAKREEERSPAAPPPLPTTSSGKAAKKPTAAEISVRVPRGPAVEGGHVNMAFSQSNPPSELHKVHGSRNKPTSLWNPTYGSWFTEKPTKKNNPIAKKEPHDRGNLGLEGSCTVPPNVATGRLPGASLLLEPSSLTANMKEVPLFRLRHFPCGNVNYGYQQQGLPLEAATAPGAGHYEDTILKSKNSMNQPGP
363 human kinases (including Aurora A/B/C) (Homo sapiens, UniProt O75116), sequence (O75116 whole entry): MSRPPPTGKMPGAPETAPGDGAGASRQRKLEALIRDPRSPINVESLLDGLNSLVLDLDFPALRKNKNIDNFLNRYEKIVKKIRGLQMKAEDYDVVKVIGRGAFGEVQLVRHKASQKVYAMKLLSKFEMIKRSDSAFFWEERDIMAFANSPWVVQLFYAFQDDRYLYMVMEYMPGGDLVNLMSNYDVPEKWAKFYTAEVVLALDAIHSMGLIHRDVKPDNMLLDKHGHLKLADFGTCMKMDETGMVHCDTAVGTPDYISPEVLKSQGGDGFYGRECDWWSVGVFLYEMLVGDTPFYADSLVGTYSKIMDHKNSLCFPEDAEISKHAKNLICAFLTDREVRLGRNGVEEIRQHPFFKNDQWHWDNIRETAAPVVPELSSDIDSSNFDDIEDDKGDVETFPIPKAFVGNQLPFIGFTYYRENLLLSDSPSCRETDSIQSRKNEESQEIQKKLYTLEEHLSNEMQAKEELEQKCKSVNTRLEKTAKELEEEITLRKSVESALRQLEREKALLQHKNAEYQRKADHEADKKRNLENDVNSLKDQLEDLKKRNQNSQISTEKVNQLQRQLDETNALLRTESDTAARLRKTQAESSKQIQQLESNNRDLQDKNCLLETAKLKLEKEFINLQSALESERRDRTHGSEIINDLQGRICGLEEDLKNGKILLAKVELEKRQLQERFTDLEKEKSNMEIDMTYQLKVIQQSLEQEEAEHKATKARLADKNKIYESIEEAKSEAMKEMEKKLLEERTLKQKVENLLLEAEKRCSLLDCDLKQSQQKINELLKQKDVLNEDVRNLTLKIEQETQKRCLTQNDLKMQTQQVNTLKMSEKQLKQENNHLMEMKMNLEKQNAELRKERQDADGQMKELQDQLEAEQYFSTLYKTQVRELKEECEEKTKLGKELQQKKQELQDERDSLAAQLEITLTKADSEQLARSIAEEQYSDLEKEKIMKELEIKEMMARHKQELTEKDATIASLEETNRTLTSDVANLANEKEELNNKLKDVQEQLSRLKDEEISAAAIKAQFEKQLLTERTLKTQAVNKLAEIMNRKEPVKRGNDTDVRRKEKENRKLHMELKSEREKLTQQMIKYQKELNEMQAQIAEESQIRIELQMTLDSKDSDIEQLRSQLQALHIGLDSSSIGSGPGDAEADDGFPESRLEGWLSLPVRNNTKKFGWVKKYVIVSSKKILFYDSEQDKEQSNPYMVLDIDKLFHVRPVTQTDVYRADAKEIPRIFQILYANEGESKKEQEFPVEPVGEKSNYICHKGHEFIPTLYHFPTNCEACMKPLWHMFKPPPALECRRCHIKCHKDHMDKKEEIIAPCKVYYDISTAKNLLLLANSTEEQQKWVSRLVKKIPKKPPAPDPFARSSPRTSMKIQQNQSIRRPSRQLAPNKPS
363 human kinases (including Aurora A/B/C) (Homo sapiens, UniProt Q9NQU5), sequence (Q9NQU5 whole entry): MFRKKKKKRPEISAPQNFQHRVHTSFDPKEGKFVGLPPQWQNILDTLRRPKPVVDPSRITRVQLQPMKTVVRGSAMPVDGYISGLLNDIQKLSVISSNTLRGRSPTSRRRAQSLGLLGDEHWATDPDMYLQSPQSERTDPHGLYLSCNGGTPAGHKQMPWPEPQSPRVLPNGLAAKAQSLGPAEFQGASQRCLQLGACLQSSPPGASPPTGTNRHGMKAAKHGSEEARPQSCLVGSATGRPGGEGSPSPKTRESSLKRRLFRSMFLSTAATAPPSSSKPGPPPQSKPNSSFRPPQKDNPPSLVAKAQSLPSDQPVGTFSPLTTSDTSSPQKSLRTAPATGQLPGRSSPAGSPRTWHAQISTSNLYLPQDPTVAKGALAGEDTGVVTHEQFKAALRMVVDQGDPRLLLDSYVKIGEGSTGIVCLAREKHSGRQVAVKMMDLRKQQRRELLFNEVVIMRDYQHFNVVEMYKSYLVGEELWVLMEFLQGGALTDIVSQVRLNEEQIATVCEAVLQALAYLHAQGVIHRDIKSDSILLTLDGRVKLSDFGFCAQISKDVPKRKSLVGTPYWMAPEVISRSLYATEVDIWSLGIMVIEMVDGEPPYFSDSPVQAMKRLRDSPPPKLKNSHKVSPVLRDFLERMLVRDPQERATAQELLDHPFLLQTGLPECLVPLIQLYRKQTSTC

Take `O=C(c1cccc(Cl)c1F)N1CCN(Cc2cccc(Nc3nccs3)n2)CC1` [MK-8745]: the “% Enzyme Activity (relative to DMSO controls)” value in experiment [1] (500 nM) is given as 89.27%; in experiment [2] (500 nM), 58.24%; in experiment [3] (500 nM), 103.92%; in experiment [4] (500 nM), 91.55%; in experiment [5] (500 nM), 78.97%; in experiment [6] (500 nM) it was 95.13%. For the same molecule, the remaining activity at 0.5 µM was 90.3% in experiment [1] (500 nM); 58.3% in experiment [2] (500 nM); 105% in experiment [3] (500 nM); 92.6% in experiment [4] (500 nM); 81% in experiment [5] (500 nM); 96.6% in experiment [6] (500 nM).
Consider `CCn1cc(-c2ccnc3[nH]c(-c4cccc(CN(C)C)c4)cc23)c(-c2ccc(NC(=O)N(C)C)cc2)n1` [GSK1070916], for which the remaining activity at 0.1 µM in experiment [1] came to 103%; in experiment [2], 85.1%; in experiment [3] it was 101%; in experiment [4], 71.8%; in experiment [5] it was 98.4%; in experiment [6], 83.8%.
On to `O=C(O)[C@]1(Cc2cccc(Nc3nccs3)n2)CC[C@@H](Oc2cccc(Cl)c2F)CC1` [MK-5108], for which the remaining activity at 0.1 µM stood at 99.8% in experiment [1]; 47.6% in experiment [2]; 102% in experiment [3]; 99.6% in experiment [4]; 67% in experiment [5]; 95.2% in experiment [6]. In addition, the remaining activity at 0.5 µM in experiment [1] (500 nM) amounted to 97%; in experiment [2] (500 nM), 19.1%; in experiment [3] (500 nM), 106%; in experiment [4] (500 nM), 98.2%; in experiment [5] (500 nM), 30.9%; in experiment [6] (500 nM), 60.7%.
